Test results: article PMC3907690 (FEBS Open Bio, 2014)

Columns and labels:
WalKc(PH) = WalKc(PH) (Bacillus anthracis, UniProt A0A6H3AEB6)
WalKc(H) = WalKc(H) (Bacillus anthracis, UniProt A0A6H3AEB6)
WalKc = WalKc (Bacillus anthracis, UniProt A0A6H3AEB6)
WalR = WalR (Bacillus anthracis, UniProt A0A2P0HLU7)
Sequence of WalR (A0A2P0HLU7 1-235): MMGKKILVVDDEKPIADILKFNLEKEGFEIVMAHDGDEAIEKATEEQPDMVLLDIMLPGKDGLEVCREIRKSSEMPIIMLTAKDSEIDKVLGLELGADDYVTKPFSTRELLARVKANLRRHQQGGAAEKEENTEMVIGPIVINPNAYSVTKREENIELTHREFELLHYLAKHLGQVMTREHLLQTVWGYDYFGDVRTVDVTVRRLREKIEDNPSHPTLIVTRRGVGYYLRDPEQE

Sequence of WalKc(PH) (A0A6H3AEB6 263-613 limits assumed): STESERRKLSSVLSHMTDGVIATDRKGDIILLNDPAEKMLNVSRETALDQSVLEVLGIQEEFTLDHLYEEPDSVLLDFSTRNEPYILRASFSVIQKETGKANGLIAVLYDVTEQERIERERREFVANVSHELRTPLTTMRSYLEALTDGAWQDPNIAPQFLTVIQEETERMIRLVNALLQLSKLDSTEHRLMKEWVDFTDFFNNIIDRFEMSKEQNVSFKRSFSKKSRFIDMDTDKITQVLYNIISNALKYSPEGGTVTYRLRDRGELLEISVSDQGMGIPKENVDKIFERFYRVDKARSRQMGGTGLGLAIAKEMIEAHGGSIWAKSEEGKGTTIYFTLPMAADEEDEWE
Sequence of WalKc (A0A6H3AEB6 210-613 limits assumed): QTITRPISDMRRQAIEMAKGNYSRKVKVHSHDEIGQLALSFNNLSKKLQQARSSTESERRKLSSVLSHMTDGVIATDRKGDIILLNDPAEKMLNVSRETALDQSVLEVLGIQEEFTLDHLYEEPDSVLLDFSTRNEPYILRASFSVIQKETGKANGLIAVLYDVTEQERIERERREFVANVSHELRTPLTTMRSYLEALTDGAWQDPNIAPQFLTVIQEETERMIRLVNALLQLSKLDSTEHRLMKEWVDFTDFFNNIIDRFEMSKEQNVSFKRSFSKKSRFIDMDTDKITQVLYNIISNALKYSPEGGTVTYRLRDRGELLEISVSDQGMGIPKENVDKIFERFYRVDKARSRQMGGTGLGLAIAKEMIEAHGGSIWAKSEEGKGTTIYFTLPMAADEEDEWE
Sequence of WalKc(H) (A0A6H3AEB6 380-613 limits assumed): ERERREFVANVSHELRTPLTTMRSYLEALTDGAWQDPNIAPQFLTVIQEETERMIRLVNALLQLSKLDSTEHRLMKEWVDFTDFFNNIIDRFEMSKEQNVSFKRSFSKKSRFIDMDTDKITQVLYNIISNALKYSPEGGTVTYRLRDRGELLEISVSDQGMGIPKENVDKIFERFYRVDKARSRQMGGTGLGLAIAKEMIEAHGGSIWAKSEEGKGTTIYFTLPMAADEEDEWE

Compound | autophosphorylation, 32P SDS-PAGE autoradiography (WalKc(PH)) | autophosphorylation, 32P SDS-PAGE autoradiography (WalKc(H)) | autophosphorylation, 32P SDS-PAGE autoradiography (WalKc) | phosphorylation of WalR, native PAGE with coomassie staining (WalR)
Nc1ncnc2c1ncn2[C@@H]1O[C@H](COP(=O)(O)OP(=O)(O)OP(=O)(O)O)[C@@H](O)[C@H]1O [ATP] | Both, WalKc(PH) and WalKc(H), appeared to be more efficient than WalKc in autophosphorylation | Both, WalKc(PH) and WalKc(H), appeared to be more efficient than WalKc in autophosphorylation | When WalKc was incubated with labeled ATP mixture, autophosphorylation could be detected | 
NC(=O)OP(=O)(O)O [carbamoyl phosphate] |  |  |  | Carbamoyl phosphate mediated phosphorylation of WalR was also found to be inefficient
